Experiment [1] concerns RMCE in platelets. As to conditions: Merritt, et al.; cited from earlier work.
For experiment [2], the system named is RMCE in endothelial cells. As to conditions: Merritt, et al.; cited from earlier work.
Experiment [3] concerns RMCE in neutrophils. The conditions noted are these: Merritt, et al.; cited from earlier work.
The subject of experiment [4] is voltage-gated L-type calcium channels in vascular smooth muscle cells. As to conditions: patch clamp; Merritt, et al.; cited from earlier work.
The subject of experiment [5] is A2058 cells. As to the kind of experiment: Proliferation of A2058 cells (monolayer growth, crystal violet). Format: cell-based, human. The conditions noted are these: for activity at 10 µM: Homo sapiens, read-out: GROWTH (% OF CONTROL). Here is the method:
For the clonogenic assay, aliquots of 50,000 cells per well (24 well plates) were grown under standard tissue culture conditions in the presence of increasing doses or test compound (0-10 μg/mL) or vehicle control. After 96 hr, the cells were gently washed with PBS, fixed, and stained with 0.5% crystal violet nuclear stain in 20% methanol. Excess stain was removed with tap water and bound stain was eluted with an equal volume solution of 01N sodium citrate (pH 4.2) and absolute ethanol. Optical density (O.D.) of eluted crystal violet stain was determined at 540 nm. The results of dose-dependent inhibition of tumor cell proliferation by compound 1 are shown in FIG. 5, in which the data are expressed as percent of untreated control cell proliferation for each cell type. The degree of inhibition varied with the cell type and was maximal (76%) for the A2058 cell line.
A2058 human melanoma cells were used to test the effect of compounds 1 and 3-25 on cellular proliferation. The cells were cultured in the presence of the test compounds (10 μM) for 96 hr. fixed and stained with crystal violet as described above. Growth inhibition was determined as a percent of control growth (using either DMSO or PEG-400 as the vehicle) for each compound. Each experiment was run a minimum of three times and the average of the results for each compound is provided in Table H and in FIGS. 20A and 20B.

Experiment [6] has as its system A2058 cells. Briefly: Colony formation (soft agar). The experiment is classed as cell-based, human. As to conditions: for COLONY FORMATION (% OF CONTROL): Table H, soft agar; for Colony Formation (% of Control): Table K. How it is done:
Colony formation: Compound 1 was evaluated at three concentrations for inhibition of colony formation in both the A2058 and OVCAR3 cell lines. Colony number was determined in triplicate and compared to the vehicle control run on each 24 well plate to provide a percent. Colonies greater than 60 cells were counted at 100× under phase contrast. […] In a second study, selected compounds were evaluated for their effect on density-independent growth of the A2058 cell line in soft agar. Percent inhibition was determined over triplicate experiments involving three log molar concentrations of the test compound.

Experiment [7] has as its system CHOm5 cells. Briefly: Carbachol-stimulated arachidonic acid release. Format: cell-based, Chinese hamster. As to conditions: Table K. The text has this: This example illustrates the effect of selected compounds on the release of arachidonic acid from carbachol-stimulated CHOm5 cells. Carbachol is a muscarinic agonist which in the muscarinic receptor transfected CHO cells stimulates the activation of phospholipase A2, resulting in arachidonic acid release and metabolism. Downstream metabolites of arachidonic acid, prostaglandins and leukotrienes are also second messengers.
The effect of compound 1 on arachidonic acid release from CHOm5 cells was determined by incubating the cells to isotopic equilibrium with labelled arachidonic acid, then washing the cells twice with 1 mL of serum-free media supplemented with 20 mM HEPES and 0.2% bovine serum albumin (fatty acid free) to trap the unincorporated labelled arachidonic acid, and then simultaneously adding carbachol (100 μM) and increasing concentrations of 1. After 15 min, the reaction was stopped by removing the incubation media which was then centrifuged at 10,000×g to eliminate any nonadherent cells.

Experiment [8] deals with CHOm5 cells. As to the kind of experiment: Carbachol-stimulated 45Ca2+ influx. The conditions noted are these: Table I; carbachol-stimulated. The experiment is classed as cell-based, Chinese hamster. Further details: % Inhibition of 45Ca2+ Influx into CHOm5 Cells: concentration or dose not given beside the values. How it is done:
Calcium influx was determined using two methods. The first method involved the use of ^45 Ca^2+, while the second method utilized a fluorescent intracellular calcium chelator, Fura-2. The method using Fura-2 is semi-quantitative and is preferred for kinetic analysis and screening whereas the ^45 Ca^2+ method is quantitative.
CHOm5 cells in monolayer culture were washed free of serum-containing media and incubated with either carbachol or the calcium ionophore A23187 (from Molecular Probes, Eugene, Oreg., USA) in the presence of ^45 Ca^2+ and defined buffer (E2 medium with 0.1 mM MgCl2 and 1.0 mM CaCl2). After incubation for 5 min, the radioactive buffer was rapidly and repeatedly washed off with media containing LaCl3, a competitor of calcium efflux. The cell monolayer was solubilized and the calcium uptake was determined by scintillation counting.
Stimulated uptake of radiolabelled calcium was measured as described above. The abbreviations CTL and CC are control and carbachol-stimulated calcium influx values. respectively.

Experiment [9] has as its system 5R ras-transfected rat embryo fibroblasts. As to the kind of experiment: AMF-stimulated cell motility. Format: cell-based. The conditions noted are these: PT, 0.5 μg/ml for 2 hr. How it is done: (§1) The cell motility assay has been described. See, Stracke et al., Biochem. Biophys. Res. Comm., 146:339-345 (1987). Cells from the A2058 human melanoma line which was maintained in subconfluent culture were harvested with trypsin-EDTA, and were allowed to recover for 1 hr at room temperature. Cells from the 5R H-ras transformed (diploid) rat embryo fibroblast line were harvested with 2 mM EDTA in PBS without divalent cations. Cells were resuspended in serum-free media containing 0.1% BSA. This DMEM/0.1% BSA was used as the control for all subsequent assays. The assays were performed in triplicate using a 48-well chemotaxis chamber with 8μ Nucleopore, type IV collagen-coated filters. The chambers were incubated at 37° C. for 4 hr, stained and placed onto glass slides with the original cell side up so that the cell pellet could be wiped from the surface. Cells that had migrated through the pores were trapped between glass and membrane and could be quantitated by laser densitometry.
(§2) Compound 1 was preincubated with the cells for various periods of time, added at the start of the assay, or added later. Additionally, compound 1 remained present during the motility assay. The cells were assayed for their motile response to AMF. AMF stimulates random and directed locomotion of 5R ras-transfected rat embryo fibroblasts and A2058 human melanoma cells. […] Cell viability determined by trypan blue exclusion averaged greater than 96%. Cells exposed to various concentrations of compound 1 were tested for their response to AMF vs. control. Percent stimulated motility (in densitometer units) is defined as: […]
(§3) (AMF stimulated-control)Compound 1 /(AMF stimulated-control)untreated

The test system of experiment [10] is A2058 human melanoma cells. As to the kind of experiment: AMF-stimulated cell motility. As to conditions: PT, 0.5 μg/ml for 2 hr. Format: cell-based. How it is done: as §1, §2, §3

Like-named read-outs stand apart in the source and are kept apart here.

For the molecule `COc1ccc(CCCOC(Cn2ccnc2)c2ccc(OC)cc2)cc1` (centres unmarked) [Compound 2], the “inhibition of RMCE” value in [1], in experiment [2] and in experiment [3] was “inhibits RMCE” throughout. Also, in [4], the “block of voltage-gated L-type calcium channels” value is listed as “blocks”.
As to `NC(=O)c1nnn(Cc2cc(Cl)c(C(=O)c3ccc(Cl)cc3)c(Cl)c2)c1NC=O` [Compound 3], the “dose dependent inhibition of proliferation” value in experiment [5] (FIG. 20A, monolayer growth) is recorded as “Dose dependent inhibition of proliferation”. Moreover, in [5] (A2058, Table H, 10 μM, 96 hr), the activity at 10 µM amounted to 31.5 ± 7%. In [6], the “COLONY FORMATION (% OF CONTROL)” value amounted to 10.2 ± 0.5 % OF CONTROL and the “Colony Formation (% of Control)” value was 10.2 ± 0.5 % of Control. In addition, the “Arachidonic Acid Release (% of Control)” value in experiment [7] is 13.1 ± 3 % of Control. Besides, the “% Inhibition of 45Ca2+ Influx into CHOm5 Cells” value (“% Inhibition” for short) in experiment [8] worked out at 60%.
In the case of `CC(=O)Nc1c(C(N)=O)nnn1Cc1cc(Cl)c(C(=O)c2ccc(Cl)cc2)c(Cl)c1` [Compound 4], in [5] (A2058, Table H, 10 μM, 96 hr), the activity at 10 µM was determined as 53.7 ± 15%. In experiment [6], the “COLONY FORMATION (% OF CONTROL)” value is recorded as 10.3 ± 0.4 % OF CONTROL and the “Colony Formation (% of Control)” value was 10.3 ± 0.4 % of Control. Further, the “Arachidonic Acid Release (% of Control)” value in [7] is given as 73.8 ± 5.9 % of Control. The “% Inhibition” value in experiment [8] turned out to be 41%.
Regarding `NC(=O)c1nnn(Cc2cc(Cl)c(C(=O)c3ccc(Cl)cc3)c(Cl)c2)c1NC(=O)c1ccccc1` [Compound 5], in experiment [5] (A2058, Table H, 10 μM, 96 hr), the activity at 10 µM came out at 39 ± 2%. For the same molecule, in [6], the “COLONY FORMATION (% OF CONTROL)” value came to 9.97 ± 1 % OF CONTROL and the “Colony Formation (% of Control)” value is reported as 9.97 ± 1 % of Control. The “Arachidonic Acid Release (% of Control)” value in experiment [7] is reported as 49.2 ± 12 % of Control. Besides, the “% Inhibition” value in experiment [8] was 61%.
Consider `Nc1c(C(=O)O)nnn1Cc1cc(Cl)c(C(=O)c2ccc(Cl)cc2)c(Cl)c1` [Compound 6], for which the activity at 10 µM in experiment [5] (A2058, Table H, 10 μM, 96 hr) was 45.3 ± 11%. In addition, in [6], the “COLONY FORMATION (% OF CONTROL)” value was found to be 9.00 ± 1 % OF CONTROL and the “Colony Formation (% of Control)” value is reported as 9.00 ± 1 % of Control. Moreover, the “Arachidonic Acid Release (% of Control)” value in experiment [7] is 49.6 ± 5 % of Control. The “% Inhibition” value in [8] is reported as 38%.
Take `O=C(c1ccc(Cl)cc1)c1c(Cl)cc(Cn2ccnc2)cc1Cl` [Compound 7]: in experiment [5] (A2058, Table H, 10 μM, 96 hr), the activity at 10 µM was found to be 66.5 ± 9%. The “Arachidonic Acid Release (% of Control)” value in experiment [7] is on record as 92.6 ± 7 % of Control.
Regarding `NC(=O)c1nc[nH]c1N` [Compound 9], the activity at 10 µM in experiment [5] (A2058, Table H, 10 μM, 96 hr) came out at 97 ± 3%.
As for `O=C(O)c1nn[nH]c1C(=O)O` [Compound 10], the activity at 10 µM in experiment [5] (A2058, Table H, 10 μM, 96 hr) was determined as 92.2 ± 4%. Besides, in experiment [6], the “COLONY FORMATION (% OF CONTROL)” value is 100 ± 3 % OF CONTROL.
`NC(=O)c1nnn(Cc2cccc(F)c2)c1N` [Compound 11]: the activity at 10 µM in experiment [5] (A2058, Table H, 10 μM, 96 hr) is 89 ± 3%.
Same read-out and setting: the value for `NC(=O)c1nnn(Cc2cccc(Cl)c2)c1N` [Compound 12] was 85 ± 2%; that for `NC(=O)c1nnn(Cc2cccc(Br)c2)c1N` [Compound 13] was 85.5 ± 13%.
Still for that read-out and setting: then `NC(=O)c1nnn(Cc2cccc(I)c2)c1N` [Compound 14], with 89 ± 6%.
`NC(=O)c1nnn(Cc2cc(Cl)cc(Cl)c2)c1N` [Compound 15]: in experiment [8], the “% Inhibition” value is on record as 0%.
For the molecule `NC(=O)c1nnn(Cc2cc(F)cc(F)c2)c1N` [Compound 16], the activity at 10 µM in experiment [5] (A2058, Table H, 10 μM, 96 hr) came out at 111 ± 8%.
Turning to `O=C(c1ccccc1)c1ccccc1` [Compound 17], the activity at 10 µM in experiment [5] (A2058, 96 h) was 98.5 ± 5%. For the same molecule, in experiment [6], the “COLONY FORMATION (% OF CONTROL)” value came out at 95.9 ± 3 % OF CONTROL.
Take `O=C(c1ccccc1)c1ccc(F)cc1` [Compound 18]: the activity at 10 µM in experiment [5] (A2058, Table H, 10 μM, 96 hr) turned out to be 94 ± 2%. In addition, the “COLONY FORMATION (% OF CONTROL)” value in experiment [6] was 93.0 ± 3.7 % OF CONTROL.
On the same counts, the results for `O=C(c1ccccc1)c1ccc(Cl)cc1` [Compound 19] are 110 ± 12% and 94.3 ± 3.1 % OF CONTROL.
For the molecule `O=C(c1ccccc1)c1ccc(Br)cc1` [Compound 20], in experiment [5] (A2058, Table H, 10 μM, 96 hr), the activity at 10 µM is 97 ± 24%. The “COLONY FORMATION (% OF CONTROL)” value in experiment [6] is recorded as 95.0 ± 1.4 % OF CONTROL.
On the same counts, the results for `O=C(c1ccccc1)c1ccccc1Cl` [Compound 21] are 123 ± 5% and 100 ± 5 % OF CONTROL.
On the same counts, the results for `O=C(c1ccc(F)cc1)c1ccccc1Cl` [Compound 23] are 101 ± 0.5% and 97.8 ± 5 % OF CONTROL.
Take `O=C(c1ccc(F)cc1)c1ccccc1F` [Compound 24]: the activity at 10 µM in experiment [5] (A2058, Table H, 10 μM, 96 hr) was determined as 82 ± 7%.
Turning to `O=C(c1ccccc1O)c1ccccc1O` [Compound 25], the activity at 10 µM in experiment [5] (A2058, Table H, 10 μM, 96 hr) was determined as 98 ± 7%. Further, the “COLONY FORMATION (% OF CONTROL)” value in experiment [6] was found to be 95.3 ± 2 % OF CONTROL.
On to `O=C(c1ccc(Cl)cc1)c1c(Cl)cc(CO)cc1Cl` [Compound 26], for which, in [5] (A2058, Table H, 10 μM, 96 hr), the activity at 10 µM amounted to 101 ± 11%. Moreover, the “COLONY FORMATION (% OF CONTROL)” value in experiment [6] came out at 100.3 ± 1.2 % OF CONTROL. In [8], the “% Inhibition” value is on record as ~ 10%.
With pertussis toxin [reference compound], the “inhibition of AMF-stimulated motility by pertussis toxin” value in experiment [9] and in experiment [10] was “markedly inhibited” throughout.

These data come from US5482954A, “Signal transduction inhibitor triazole and diazole compounds” (priority 1994, dated 1996).
